Experimental data as given in patent US20230053540A1, “TREATMENT OF LIVER INJURY” (Massachusetts Institute of Technology, priority 2019, published 2023).

Test system: hepatocytes
Test: Seq-Well scRNA-Seq of hepatocytes after APAP overdose (signature scores, DEG vs untreated)
Format: in vivo, mouse

CC(=O)Nc1ccc(O)cc1 [APAP, acetaminophen]
Rpl34 logFC (APAP vs UT, A24logFC): −0.2976
Rps24 logFC (APAP vs UT, A24logFC): −0.2625
Rraga logFC (APAP vs UT, A24logFC): 0.2626
Rsl1d1 logFC (APAP vs UT, A24logFC): 0.3461
Selo logFC (APAP vs UT, A24logFC): −0.2574
Sema4g logFC (APAP vs UT, A24logFC): −0.2505
Serbp1 logFC (APAP vs UT, A24logFC): 0.3227
Sf3b1 logFC (APAP vs UT, A24logFC): 0.2888
Sigmar1 logFC (APAP vs UT, A24logFC): −0.3055
Slc16a2 logFC (APAP vs UT, A24logFC): −0.252
Slc16a10 logFC (APAP vs UT, A24logFC): −0.2548
Slc25a51 logFC (APAP vs UT, A24logFC): 0.264
Slc26a1 logFC (APAP vs UT, A24logFC): −0.2817
Slc30a1 logFC (APAP vs UT, A24logFC): 0.2506
Slc35d1 logFC (APAP vs UT, A24logFC): 0.3094
Smoc1 logFC (APAP vs UT, A24logFC): 0.2616
Spag9 logFC (APAP vs UT, A24logFC): 0.3188
Spcs1 logFC (APAP vs UT, A24logFC): −0.2629
Sptan1 logFC (APAP vs UT, A24logFC): 0.3127
Srd5a1 logFC (APAP vs UT, A24logFC): −0.2773
Srrm2 logFC (APAP vs UT, A24logFC): 0.3282
St3gal4 logFC (APAP vs UT, A24logFC): 0.275
Swi5 logFC (APAP vs UT, A24logFC): −0.2621
Tab2 logFC (APAP vs UT, A24logFC): 0.3484
Tbca logFC (APAP vs UT, A24logFC): −0.2726
Tln1 logFC (APAP vs UT, A24logFC): 0.321
Tmem86b logFC (APAP vs UT, A24logFC): −0.2582
Tmem150a logFC (APAP vs UT, A24logFC): −0.2535
Tmem242 logFC (APAP vs UT, A24logFC): −0.2725
Tpi1 logFC (APAP vs UT, A24logFC): −0.2616
Trip11 logFC (APAP vs UT, A24logFC): 0.3479
Ubr5 logFC (APAP vs UT, A24logFC): 0.3057
Ugt3a2 logFC (APAP vs UT, A24logFC): −0.2586
Usp7 logFC (APAP vs UT, A24logFC): 0.2873
Usp34 logFC (APAP vs UT, A24logFC): 0.2859
Xrn2 logFC (APAP vs UT, A24logFC): 0.2985
Ythdc1 logFC (APAP vs UT, A24logFC): 0.2641
Zfand5 logFC (APAP vs UT, A24logFC): 0.2882
Zfp106 logFC (APAP vs UT, A24logFC): 0.3369
Zfp259 logFC (APAP vs UT, A24logFC): 0.2556
2810007J24Rik avg_logFC (APAP vs. UT): −0.2871
2810007J24Rik pct.1 (APAP vs. UT): 0.909
Aadac avg_logFC (APAP vs. UT): −0.3243
Aadac pct.1 (APAP vs. UT): 0.849
Abca6 avg_logFC (APAP vs. UT): 0.2637
Abca6 pct.1 (APAP vs. UT): 0.679
Abcb4 avg_logFC (APAP vs. UT): 0.2759
Abcb4 pct.1 (APAP vs. UT): 0.78
Acaa1b avg_logFC (APAP vs. UT): −0.3158
Acaa1b pct.1 (APAP vs. UT): 0.883
Adh1 avg_logFC (APAP vs. UT): −0.3122
Adh1 pct.1 (APAP vs. UT): 0.941
Agpat6 avg_logFC (APAP vs. UT): 0.2706
Agpat6 pct.1 (APAP vs. UT): 0.695
Agt avg_logFC (APAP vs. UT): 0.3007
Agt pct.1 (APAP vs. UT): 0.859
Akr1c6 avg_logFC (APAP vs. UT): −0.5047
Akr1c6 pct.1 (APAP vs. UT): 0.92
Aldh9a1 avg_logFC (APAP vs. UT): 0.2715
Aldh9a1 pct.1 (APAP vs. UT): 0.836
Aldob avg_logFC (APAP vs. UT): 0.2576
Aldob pct.1 (APAP vs. UT): 0.997
Angptl3 avg_logFC (APAP vs. UT): 0.414
Angptl3 pct.1 (APAP vs. UT): 0.961
Apoa4 avg_logFC (APAP vs. UT): 0.5984
Apoa4 pct.1 (APAP vs. UT): 0.574
Apob avg_logFC (APAP vs. UT): 0.2678
Apob pct.1 (APAP vs. UT): 0.989
Apoc2 avg_logFC (APAP vs. UT): 0.5107
Apoc2 pct.1 (APAP vs. UT): 0.851
Arhgap5 avg_logFC (APAP vs. UT): 0.2875
Arhgap5 pct.1 (APAP vs. UT): 0.647
Arhgef12 avg_logFC (APAP vs. UT): 0.2783
Arhgef12 pct.1 (APAP vs. UT): 0.597
Asl avg_logFC (APAP vs. UT): 0.3374
Asl pct.1 (APAP vs. UT): 0.859
Atp1a1 avg_logFC (APAP vs. UT): 0.2871
Atp1a1 pct.1 (APAP vs. UT): 0.623
Atp2a2 avg_logFC (APAP vs. UT): 0.3031
Atp2a2 pct.1 (APAP vs. UT): 0.666
Bach1 avg_logFC (APAP vs. UT): 0.2613
Bach1 pct.1 (APAP vs. UT): 0.356
Bche avg_logFC (APAP vs. UT): 0.2566
Bche pct.1 (APAP vs. UT): 0.562
Brd2 avg_logFC (APAP vs. UT): 0.2856
Brd2 pct.1 (APAP vs. UT): 0.59
Btg2 avg_logFC (APAP vs. UT): 0.2635
Btg2 pct.1 (APAP vs. UT): 0.401
C8g avg_logFC (APAP vs. UT): −0.2582
C8g pct.1 (APAP vs. UT): 0.859
Car3 avg_logFC (APAP vs. UT): −0.3762
Car3 pct.1 (APAP vs. UT): 0.956
Cdo1 avg_logFC (APAP vs. UT): 0.2665
Cdo1 pct.1 (APAP vs. UT): 0.964
Ces3a avg_logFC (APAP vs. UT): −0.3174
Ces3a pct.1 (APAP vs. UT): 0.93
Ces3b avg_logFC (APAP vs. UT): −0.284
Ces3b pct.1 (APAP vs. UT): 0.727
Chchd2 avg_logFC (APAP vs. UT): −0.2575
Chchd2 pct.1 (APAP vs. UT): 0.874
Chchd10 avg_logFC (APAP vs. UT): 0.3833
Chchd10 pct.1 (APAP vs. UT): 0.925
Chka avg_logFC (APAP vs. UT): 0.2892
Chka pct.1 (APAP vs. UT): 0.312
Cite avg_logFC (APAP vs. UT): 0.3077
Cite pct.1 (APAP vs. UT): 0.602
Cml1 avg_logFC (APAP vs. UT): −0.2953
Cml1 pct.1 (APAP vs. UT): 0.709
Cox4i1 avg_logFC (APAP vs. UT): −0.2627
Cox4i1 pct.1 (APAP vs. UT): 0.941
Cox6c avg_logFC (APAP vs. UT): −0.3432
Cox6c pct.1 (APAP vs. UT): 0.808
Cox7a2 avg_logFC (APAP vs. UT): −0.2511
Cox7a2 pct.1 (APAP vs. UT): 0.722
Cp avg_logFC (APAP vs. UT): 0.3758
Cp pct.1 (APAP vs. UT): 0.965
Cpt1a avg_logFC (APAP vs. UT): 0.285
Cpt1a pct.1 (APAP vs. UT): 0.775
Creld2 avg_logFC (APAP vs. UT): 0.2626
Creld2 pct.1 (APAP vs. UT): 0.487
Csde1 avg_logFC (APAP vs. UT): 0.2739
Csde1 pct.1 (APAP vs. UT): 0.749
Cyb5 avg_logFC (APAP vs. UT): −0.2845
Cyb5 pct.1 (APAP vs. UT): 0.972
Cyp4a10 avg_logFC (APAP vs. UT): 0.7159
Cyp4a10 pct.1 (APAP vs. UT): 0.727
Cyp4a14 avg_logFC (APAP vs. UT): 1.281
Cyp4a14 pct.1 (APAP vs. UT): 0.714
D17Wsu92e avg_logFC (APAP vs. UT): 0.2809
D17Wsu92e pct.1 (APAP vs. UT): 0.736
Ddx3x avg_logFC (APAP vs. UT): 0.2753
Ddx3x pct.1 (APAP vs. UT): 0.689
Ddx21 avg_logFC (APAP vs. UT): 0.2576
Dennd5b avg_logFC (APAP vs. UT): 0.2562
Dennd5b pct.1 (APAP vs. UT): 0.55
Dhcr24 avg_logFC (APAP vs. UT): 0.3629
Dhcr24 pct.1 (APAP vs. UT): 0.883
Eif1a avg_logFC (APAP vs. UT): 0.2667
Eif1a pct.1 (APAP vs. UT): 0.492
Eif4g2 avg_logFC (APAP vs. UT): 0.3407
Eif4g2 pct.1 (APAP vs. UT): 0.824
Ell2 avg_logFC (APAP vs. UT): 0.2572
Ell2 pct.1 (APAP vs. UT): 0.609
Elovl3 avg_logFC (APAP vs. UT): −0.5221
Elovl3 pct.1 (APAP vs. UT): 0.65
Epb4.1 avg_logFC (APAP vs. UT): 0.2567
Epb4.1 pct.1 (APAP vs. UT): 0.527
Etf1 pct.1 (APAP vs. UT): 0.61
Etnppl avg_logFC (APAP vs. UT): 0.2637
Etnppl pct.1 (APAP vs. UT): 0.647
Fabp1 avg_logFC (APAP vs. UT): −0.3078
Fabp1 pct.1 (APAP vs. UT): 0.992
Fam134b avg_logFC (APAP vs. UT): 0.2987
Fam134b pct.1 (APAP vs. UT): 0.589
Fga avg_logFC (APAP vs. UT): 0.4335
Fga pct.1 (APAP vs. UT): 0.996
Fgb avg_logFC (APAP vs. UT): 0.3905
Fgb pct.1 (APAP vs. UT): 0.999
Fgg avg_logFC (APAP vs. UT): 0.3391
Fgg pct.1 (APAP vs. UT): 0.997
Fgl1 avg_logFC (APAP vs. UT): 0.3611
Fgl1 pct.1 (APAP vs. UT): 0.861
Fos avg_logFC (APAP vs. UT): 0.2633
Fos pct.1 (APAP vs. UT): 0.609
Gadd45g avg_logFC (APAP vs. UT): −0.3405
Gadd45g pct.1 (APAP vs. UT): 0.503
Gclc avg_logFC (APAP vs. UT): 0.671
Gclc pct.1 (APAP vs. UT): 0.839
Gfra1 avg_logFC (APAP vs. UT): 0.2536
Gfra1 pct.1 (APAP vs. UT): 0.676
Gjb2 avg_logFC (APAP vs. UT): 0.2803
Gjb2 pct.1 (APAP vs. UT): 0.725
Gm2a avg_logFC (APAP vs. UT): 0.2814
Gm2a pct.1 (APAP vs. UT): 0.599
Gm13775 avg_logFC (APAP vs. UT): −1.061
Gm13775 pct.1 (APAP vs. UT): 0.306
Gm15564 avg_logFC (APAP vs. UT): 1.171
Gm15564 pct.1 (APAP vs. UT): 0.981
Gm23935 avg_logFC (APAP vs. UT): 0.5701
Gm23935 pct.1 (APAP vs. UT): 0.954
Gm24601 avg_logFC (APAP vs. UT): 0.4962
Gm24601 pct.1 (APAP vs. UT): 0.198
Gm26917 avg_logFC (APAP vs. UT): 0.395
Gm26917 pct.1 (APAP vs. UT): 0.253
Gm26924 avg_logFC (APAP vs. UT): 0.8508
Gm26924 pct.1 (APAP vs. UT): 1
Grip2 avg_logFC (APAP vs. UT): 0.3797
Grip2 pct.1 (APAP vs. UT): 0.158
Grn avg_logFC (APAP vs. UT): 0.3692
Grn pct.1 (APAP vs. UT): 0.62
Gstm3 avg_logFC (APAP vs. UT): −0.4736
Gstm3 pct.1 (APAP vs. UT): 0.269
Gyk avg_logFC (APAP vs. UT): 0.3144
Gyk pct.1 (APAP vs. UT): 0.583
Hbb-bs avg_logFC (APAP vs. UT): 1.332
Hbb-bs pct.1 (APAP vs. UT): 0.125
Hbb-bt avg_logFC (APAP vs. UT): 0.4482
Hbb-bt pct.1 (APAP vs. UT): 0.052
Hdlbp avg_logFC (APAP vs. UT): 0.274
Hdlbp pct.1 (APAP vs. UT): 0.828
Herpud1 avg_logFC (APAP vs. UT): 0.2973
Herpud1 pct.1 (APAP vs. UT): 0.842
